# Test system: fungal growth (mold) on wet blue hide
# Assay: Performance testing in a tannery: wet blue test pieces in mold-infested tropical chamber
# Details: methyl carbitol-based formulation containing 30% w/w, 0.1% by weight in float (300 ppm active ingredient), chrome tanning of cowhides; 47 wet blue pieces, four weeks in tropical chamber
# Experimental: A methyl carbitol-based formulation containing 30% w/w of hexyl chloromethyl cyanodithiocarbimate was tested in a commercial tannery. Eighty-two cowhides were subjected to a standard production run using chrome tanning. The test formulation was added to the float (tanning liquid) at a concentration of 0.1% by weight providing a concentration of 300 ppm of active ingredient hexyl chloromethyl cyanodithiocarbimate. At the completion of the tanning process, five tanned hides (“wet blues”) were chosen randomly. Numerous test pieces (12×14 cm) were cut from the butt, belly, and neck regions of each of the five hides. A total of 47 test pieces of wet blue obtained were coded relative to hide source and position, and each piece was suspended in a tropical chamber. The tropical chamber was a mold-infested humidity chamber designed to severely challenge the test fungicide applied during the tanning process. Each test piece was visually examined on a weekly basis for four weeks for the presence or absence and extent of possible mold growth. […] This is the type of performance desired of a fungicide by the hide tanning industry.
row,SMILES,presence or absence and extent of mold growth on test pieces
1,"CCCCCCSC(=NC#N)SCCl [Cl, —(CH2)5CH3, hexyl chloromethyl cyanodithiocarbimate]",free of fungal growth

# Test system: Aspergillus niger
# Assay: Inhibition of growth of Aspergillus niger in liquid MSY medium (96-well microplate, OD 686 nm)
# Type: cell-based
# Details: MSY broth, four days at 28° C. in the dark, complete inhibition = OD≦0.05, test levels given as ppm
# Experimental: The antifungal activities of compounds of formula (I) were measured by determining the inhibition of growth of Aspergillus niger in a standard liquid medium. The liquid growth medium is described as a solution of mineral salts+yeast extract (MSY). The MSY broth was prepared as described in ASTM G 21–70^1, and amended with glucose (10 g liter^−1) and yeast extract (1 g liter^−1). An aliquot (250 μL) of sterile medium was dispensed into each test well of a standard 96-well microplate (Corning No. 430247). Stock solutions of test compounds were prepared by dissolving the materials in 9:1 (v/v) solution of acetone:methanol. Appropriate volumes of stock solutions were added to the test wells in order to achieve the desired ppm levels. Each test well (plus controls) was then inoculated with 5 μL of a standardized suspension of Aspergillus niger. The cell suspension was prepared by suspending viable cells from a slant of potato dextrose agar into sterile, deionized water. The suspension was then adjusted to provide OD686=0.28. This density contains approximately 2.5×10^7 CFU mL^−1 (CFU=Colony Forming Units). The microplates were incubated in the dark for four days at 28° C. The optical density for each well at 686 nm was then recorded automatically using a SpectraMax 340 microplate reader (Molecular Devices Corp., Sunnyvale, Calif.). All wells were visually inspected in order to corroborate data from the instrument. […] The results are shown in Table 2. ^1“Standard Practice for Determining Resistance of Synthetic Polymeric Materials to Fungi”,ASTM Standards on Materials and Environmental Microbiology, 1st. Ed., 1987.
row,SMILES,Antifungal MIC
1,"CC(C)SC(=NC#N)SCCl [Cl, —CH2(CH3)2, isopropyl chloromethyl cyanodithiocarbimate]",0.5
2,"N#CN=C(SCCl)SCc1ccccc1 [Cl, —CH2C6H5, benzyl chloromethyl cyanodithiocarbimate]",1.0
3,"CCCCCCSC(=NC#N)SCCl [Cl, —(CH2)5CH3, hexyl chloromethyl cyanodithiocarbimate]",0.2
4,"C=CCSC(=NC#N)SCCl [Cl, —CH2CHC═CH2, allyl chloromethyl cyanodithiocarbimate]",1.0
5,"CCCSC(=NC#N)SCCl [Cl, —(CH2)2CH3, propyl chloromethyl cyanodithioicarbimate]",0.5

# Reference: patent US7157017B2, “Fungicidal compositions and methods using cyanodithiocarbimates” (Buckman Laboratories International, Inc., priority 2003, dated 2007)
